# Assay results from US12084411B2, “Hinokitiol analogues, methods of preparing and pharmaceutical compositions thereof” (The Board of Trustees of the University of Illinois, priority 2018, dated 2024).
# Assays:
# [1] = Single-dose in vivo pharmacokinetics of hinokitiol in mice; settings: 100 mg/kg
# Description: FIGS. 29A-29B show single-dose in vivo pharmacokinetics of hinokitiol in mice. Mice were mixed C57BL/6 and 129/Sv background (2-3 mo. old) were administered various concentrations of hinokitiol (30 or 100 mg Hino/kg body weight) by two different routes (A) intraperitoneal injection and (B) oral gavage. Plasma samples were collected at various timepoints (5-360 minutes) for drug measurement by HPLC.
# In addition to evaluating the pharmacodynamics (effect) of hinokitiol in Al, the pharmacokinetics of hinokitiol were characterized to guide the optimal dose scheme for treatment.
# [2] = Electrochemical studies (cyclic voltammetry) of iron:chelator complexes; assay type: physicochemical
# Description: Potentiostatic electrochemical methods were performed on a CH Instruments electrochemical workstation (model 760 C, Austin, TX) on a three-electrode cell. Hg working electrodes were fabricated by the electrodeposition of Hg on a Pt wire utilizing the procedure previously described by Barton et al. (70). All experiments were reported versus a Ag/AgCl reference electrode and utilized a graphite auxiliary electrode. The electrolyte was sparged with UHP argon before measurements. A positive pressure of argon was maintained throughout the experiments.
# Unless otherwise indicated, experiments used a 0.1 M Tris buffer in H2O or 1:1 MeOH:H2O at pH=7.2 using HNO3 and KOH as titrant. Unless otherwise indicated, experiments used a 100 mV/s scan rate, 100 μM Fe(NO3)3, and 500 μM small molecule. All redox potentials are recorded versus a normal hydrogen electrode (NHE).
# The estimated redox potential of Fe(Hino)n was determined through extrapolation of the best-fit line of the determined redox potentials of Fe(Hino)n as a function of the concentration of MeOH in the 0.1 M Tris buffer at pH=7.2.
# [3] = Exchangeability of ferric iron bound to hinokitiol; assay type: physicochemical
# Description: The reversible exchange of ferric iron bound to hinokitiol was determined similar to previously described (69). […] The solution was equilibrated for 1 hour at 37° C., and then an equal amount of ^55FeCl3 (100 nM) was added. The solution was incubated at 37° C., and at the indicated time points an aliquot was taken and added to water. The iron-hinokitiol complex was immediately separated from unbound iron through extraction with ethyl acetate and the radioactive counts were determined by scintillation counting.
# [4] = Determination of the pKa of hinokitiol; assay type: physicochemical; settings: 0.1 M KCl solution in water, spectrophotometric titration
# Description: The pKa of hinokitiol was determined by spectrophotometric titration with varying pH. Hinokitiol (100 μM) was dissolved in a 0.1 M KCl solution in H2O and acidified to pH=3.0 (using 0.1 M HCl). The UV-Vis spectrum was repeatedly obtained upon sequential titration of 0.1 M KOH to obtain a range of pHs (3.0, 3.4, 3.9, 4.2, 4.6, 4.9, 6.0, 6.4, 7.0, 7.2, 7.6, 8.4, 9.3, 9.7, 10.4, 10.9, 11.7, 12.0).
# transferrin = transferrin (Homo sapiens, UniProt P02787); assay: Removal of 55Fe from transferrin; assay type: biochemical; settings: buffered solution, 1 nM transferrin
# Chain of transferrin (P02787 20-698, species assumed): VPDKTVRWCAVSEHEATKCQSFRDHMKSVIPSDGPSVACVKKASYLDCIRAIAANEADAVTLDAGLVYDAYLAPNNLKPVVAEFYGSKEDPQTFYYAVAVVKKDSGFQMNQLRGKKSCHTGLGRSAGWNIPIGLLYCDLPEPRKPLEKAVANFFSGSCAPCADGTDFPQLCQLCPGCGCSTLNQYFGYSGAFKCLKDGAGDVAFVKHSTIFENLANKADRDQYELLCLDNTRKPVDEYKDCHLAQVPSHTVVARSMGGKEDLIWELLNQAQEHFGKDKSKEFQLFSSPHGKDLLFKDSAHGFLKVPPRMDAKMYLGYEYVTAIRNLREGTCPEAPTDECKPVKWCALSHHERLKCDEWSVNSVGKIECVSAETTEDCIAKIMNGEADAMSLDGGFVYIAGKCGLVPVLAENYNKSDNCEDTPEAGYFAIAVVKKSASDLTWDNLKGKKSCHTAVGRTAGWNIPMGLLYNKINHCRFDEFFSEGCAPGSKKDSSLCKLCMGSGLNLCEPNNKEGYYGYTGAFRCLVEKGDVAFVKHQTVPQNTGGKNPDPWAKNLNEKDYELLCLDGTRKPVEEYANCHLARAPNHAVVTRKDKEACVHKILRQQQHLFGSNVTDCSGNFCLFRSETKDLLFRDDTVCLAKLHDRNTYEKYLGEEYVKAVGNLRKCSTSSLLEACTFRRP
# Description: The capacity for hinokitiol to remove iron from transferrin was determined through a ^55Fe assay adapted from Cerami and coworkers (62). ^55Fe was loaded onto transferrin (Tf) similar to previously described in PBS buffer (63). Increasing hinokitiol doses (from 1000X stocks in DMSO) were added to a solution of ^55Fe2Tf (1 nM) in PBS buffer to give the final indicated concentrations. The solution was incubated at 37° C. for 3 hours. After incubation, any ^55Fe bound to hinokitiol was isolated by extraction of iron:hinokitiol complexes with EtOAc. The radioactive levels in the organic layer were determined after dilution in scintillation cocktail.
# fet3Δftr1Δ yeast = assay: Growth rescue of iron-deficient yeast with small molecules on agar plates; assay type: cell-based, Saccharomyces cerevisiae; settings: low iron SD-agar plates, 10 μM FeCl3
# normal MEL cells = assay: Hemoglobinization of normal MEL cells; assay type: cell-based, mouse; settings: same concentration as in deficient system
# Description: Cells were then incubated at 37° C. for 72 hours unless otherwise noted. […] Hemoglobinized MEL cells were quantified three days after DMSO induction through o-dianisidine staining similar to previously reported (74). Cells were centrifuged three days after induction and rinsed with PBS. […] Cells were then imaged on an AXIO Zoom […] microscope to obtain color images. The number of stained cells were then quantified via ImageJ analysis and compared to the number of total cells in each image. To determine that hinokitiol requires DMSO induction for hemoglobinization, 2% DMSO was not added at the beginning of the experiment before a 72-hour incubation and o-dianisidine staining.
# FPN-deficient mice = assay: Acute injection of hinokitiol in flatiron mice, tissue iron; assay type: in vivo; settings: 4 hours
# Description: FIGS. 26A-26E show the results of acute injection of Hinokitiol in flatiron mice. Wild-type (+/+) and I (ffe/+) mice were administered hinokitiol by IP injection and were sacrificed after 4 h to measure iron content. (A) presents means f SEM (n=48/group). (B)-(E) present means±SEM (n=2/group). * P≤0.05, ** P≤0.005, and *** P≤0.001.
# To characterize the effects of hinokitiol on iron mobilization and distribution in flatiron mice, hinokitiol was administered with increasing doses (1-50 mg/kg) via intraperitoneal (IP) injection. Mice were euthanized 4 hours post-administration, and blood and a range of tissues were collected. […] Total iron in a variety of tissues including liver and spleen was further measured by inductively coupled plasma mass spectrometry (ICP-MS).
smiles,measurement,setting,value
CC(C)c1cccc(=O)c(O)c1 [hinokitiol],half-life,[1],increased half-life
same,E^0 1:1 MeOH:H2O,"[2]; Table 2, 0.1 M Tris, pH 7.2",−211 mV vs. N.H.E.
same,"E^0 Aqueous, estimated from MeOH standard curve",[2]; extrapolation of E^01 vs. MeOH concentration,−361^¶ mV vs. N.H.E.
same,time to equilibrium between 55Fe- and 56Fe-hinokitiol complex,"[3]; 10 mM Mes/Tris, pH 7.0",within one hour
same,exchange of bound 56Fe with 55Fe in solution,"[3]; within 10 minutes, pH 7.0, 37° C.",> 20%
same,pKa,[4],7.33
same,excess of hinokitiol relative to transferrin needed to remove iron,transferrin,"> 1,000 fold"
same,growth rescue of fet3Δftr1Δ yeast,fet3Δftr1Δ yeast,highly effective
same,effect on hemoglobinization in wild type system,normal MEL cells,negligible effects
same,liver total iron (ICP-MS),FPN-deficient mice; 10 mg/kg IP,releases iron from the liver
same,liver non-heme iron,FPN-deficient mice; 1-50 mg/kg IP,dose-dependent decrease
same,non-heme iron in other tissues,FPN-deficient mice; IP,suggestive of reductions in non-heme iron
